Experimental data published in US20160106102A1, “KNOWN AND NEW HETEROCYCLIC COMPOUNDS AS PEST CONTROL AGENTS” (BAYER CROPSCIENCE AKTIENGESELLSCHAFT, priority 2013, published 2016).

What was measured:
Myzus persicae [1] = assay: Myzus persicae - sachet test; format: in vivo; conditions: 100% = all animals killed
In short: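 Green peach aphids feed through a sealed sachet on nutrient medium containing the water-diluted formulation (solvents: 2% N-methylpyrrolidone, 2% diacetone alcohol). Percent mortality read after the chosen time; 100% means all animals killed.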

Tetranychus urticae = Tetranychus urticae - spray test, OP-resistant (TETRUR); format: in vivo; conditions: application rate of 500 g/ha; after 6 days; bean leaf discs infested by all stages; 100% = all spider mites killed
Description: Tetranychus urticae—spray test, OP-resistant (TETRUR)
(§1) Solvent: 78.0 parts by weight of acetone • • 1.5 parts by weight of dimethylformamide
(§2) Emulsifier: alkylaryl polyglycol ether
(§3) To produce an appropriate active ingredient formulation, 1 part by weight of active ingredient is dissolved using the specified parts by weight of solvent and made up with water containing an emulsifier concentration of 1000 ppm until the desired concentration is attained. To produce further test concentrations, the preparation is diluted with emulsifier-containing water.
Discs of bean leaves (Phaseolus vulgaris) infested by all stages of the greenhouse red spider mite (Tetranychus urticae) are sprayed with an active ingredient formulation of the desired concentration.
After 6 days, the efficacy in % is determined. 100% means that all the spider mites have been killed; 0% means that no spider mites have been killed.

Myzus persicae [2] = assay: Myzus persicae - spray test; format: in vivo; conditions: application rate of 500 g/ha; after 6 days; sprayed Chinese cabbage leaf discs infested by all stages; 100% = all aphids killed
In short: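 Chinese cabbage leaf discs infested with all stages of green peach aphid sprayed with compound in acetone/DMF formulation with alkylaryl polyglycol ether emulsifier, diluted in emulsifier-containing water. Efficacy (% aphids killed) assessed after 6 days.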

[3] = log P determination by LC-MS in the acidic range; format: physicochemical; conditions: LC-MS in the acidic range
Excerpt: The LC-MS determination in the acidic range is effected at pH 2.7 using 0.1% aqueous formic acid and acetonitrile (contains 0.1% formic acid) as eluents, linear gradient from 10% acetonitrile to 95% acetonitrile. Alternatively, the determination is effected in the acidic range at pH 2.3 using 0.1% aqueous phosphoric acid and acetonitrile as eluents; linear gradient from 10% acetonitrile to 95% acetonitrile.

Phaedon cochleariae = Phaedon cochleariae - spray test (PHAECO); format: in vivo; conditions: application rate of 500 g/ha; after 7 days; larvae of the mustard beetle on sprayed Chinese cabbage leaf discs; 100% = all larvae killed
Description: Phaedon cochleariae—Spray Test (PHAECO)
as §1, §2, §3
Discs of Chinese cabbage leaves (Brassica pekinensis) are sprayed with an active ingredient formulation of the desired concentration and, after drying, populated with larvae of the mustard beetle (Phaedon cochleariae).
After 7 days, the efficacy in % is determined. 100% means that all the beetle larvae have been killed; 0% means that no beetle larvae have been killed.

Spodoptera frugiperda = Spodoptera frugiperda - spray test (SPODFR); format: in vivo; conditions: application rate of 500 g/ha; after 7 days; armyworm caterpillars on sprayed maize leaf discs; 100% = all caterpillars killed
Description: Spodoptera frugiperda—Spray Test (SPODFR)
as §1, §2, §3
Leaf discs of maize (Zea mays) are sprayed with an active ingredient formulation of the desired concentration and, after drying, populated with caterpillars of the armyworm (Spodopterafrugiperda).
After 7 days, the efficacy in % is determined. 100% means that all the caterpillars have been killed; 0% means that no caterpillars have been killed.

[4] = application rate of 30 ppm in nutrient medium
[5] = application rate of 6 ppm in nutrient medium

SMILES | efficacy (kill in %) (Myzus persicae [1]; [4]) [%] | efficacy in % (Tetranychus urticae) [%] | efficacy in % (Myzus persicae [2]) [%] | log P (acid) [3] | efficacy (kill in %) (Myzus persicae [1]; [5]) [%] | efficacy in % (Phaedon cochleariae) [%] | efficacy in % (Spodoptera frugiperda) [%]
CCC(C)n1nc(NC(=O)c2cccnc2)cc1C (stereo not shown) [Compound I-1-205] | 100 | 90 | 100 | 1.59 |  |  | 
CCC(CC)n1nc(NC(=O)c2cccnc2)cc1C [Compound I-1-210] | 80 | 90 |  | 1.92 |  |  | 
Cc1cc(N(C(=O)c2cccnc2)C(=O)c2cccc(Cl)c2)nn1C(=O)c1cccc(Cl)c1 [Compound I-1-22] | 100 |  | 100 | 3.98 | 100 | 83 | 83
CCCC(=O)n1nc(NC(=O)c2cccnc2)cc1C [Compound I-1-131] | 100 | 90 | 90 | 1.94 | 100 | 100 | 100
Cc1nc(Cn2nc(NC(=O)c3cccnc3)cc2C)no1 [Compound I-1-282] | 100 | 90 | 90 | 0.9 | 100 |  | 
Cc1cc(NC(=O)c2cccnc2)nn1C(=O)C(C)C [Compound I-1-130] | 100 |  | 90 | 1.95 | 100 | 100 | 100
Cc1cc(N(C)C(=O)c2cccnc2)nn1Cc1ncccn1 [Compound I-1-346] | 100 |  | 100 | 0.63 | 100 | 100 | 
O=C(Nc1ccn(-c2ncccc2Cl)n1)c1cccnc1 [Compound I-1-48] | 100 |  |  | 1.25 |  | 100 | 100
CSCCn1nc(NC(=O)c2cccnc2)cc1C [Compound I-1-184] | 100 |  | 90 | 1.22 | 100 |  | 
Cc1cc(NC(=O)c2cccnc2)nn1C[S+](C)[O-] (stereo not shown) [Compound I-1-243] | 100 |  | 100 | 0.19 | 100 |  | 
CSCCn1nc(N(C)C(=O)c2cccnc2)cc1C [Compound I-1-187] | 100 |  | 90 | 1.17 | 100 |  | 
CCc1nn2c(=O)cc(Cn3nc(NC(=O)c4cccnc4)cc3C)nc2s1 [Compound I-1-352] | 100 |  | 90 | 1.23 |  |  | 
